One block for each molecule: values may come before it.
Key:
[1] = Stability of sample solutions in the dark/under light; type: physicochemical
Protocol: Determination: An appropriate amount of a salt sample was taken, dissolved with water, and diluted to prepare a test solution with a concentration of about 10 ppm. An acidic reference substance (extremely-insoluble in water) was prepared with a 30% to 50% ethanol aqueous solution into a test solution with a concentration of about 10 ppm.
Each test solution was scanned by an ultraviolet spectrophotometer (at 0 h) for absorbance in a range of 200 nm to 800 nm immediately after being prepared. Then a test solution of each sample was divided into two parts. One part was placed at room temperature of 25° C. in the dark, and the other part was placed under light with a light intensity of 30,000 lux. At 1 h, 2 h, and 3 h, a solution sample was collected and scanned for absorbance respectively.
An absorbance value of a maximum absorption peak at 0 h (starting) of each test solution was set as a relative content of 100%, and a ratio of an absorbance value at each time point to the absorbance value at 0 h was calculated to determine a relative content, %.

[2] = test system: mung bean seedlings; test: Inducing adventitious roots from hypocotyls of mung bean; type: in vivo; settings: day 7
Protocol: Test solution preparation: 8 mL of a commercially-available STANLEY universal hydroponic nutrient solution was taken and diluted with tap water to 3,200 mL (400-fold dilution) to produce a dilute nutrient solution. An appropriate amount of each of salt samples such as protoporphyrin disodium and potassium chlorhematin was weighed and prepared with the dilute nutrient solution into 0.010 ppm and 0.1 ppm sample test solutions, and 150 mL of each test solution was taken. 150 mL of the dilute nutrient solution was taken as a blank control. The test solutions and the control solution were placed in brown bottles, and the brown bottles were sealed with a black film. Mung bean seedlings with uniform growth and a seedling height of 7 cm to 8 cm were selected, and cut at 3 cm below a first true leaf node. 8 mung bean seedlings were inserted into each bottle (with roots removed) to make lower radicles soaked in a solution. Mung bean seedlings were treated at room temperature of 20° C. to 25° C. for 7 d in total, during which the solution was changed every 2 d. On day 2 to day 3 of the treatment, there was a significant difference. On day 7, the observation and determination were conducted. An average adventitious root number and an average total adventitious root length for each seedling were calculated, and results were shown in the following table: […]

[3] = test system: pepper; test: Spraying on pepper to increase a yield; type: in vivo, pepper (Hebei Jize pepper); settings: for Average fruit number / Single-fruit weight / Yield per mu: 1.5 mg/mu sprayed twice (0.1 ppm and 0.05 ppm); for Yield increase rate: 1.5 mg/mu sprayed twice, versus clear water
Protocol: Experimental method: A land area of 10 mu was adopted for each of experimental and control groups. A treatment group was sprayed with a potassium hematin solution, a control group was sprayed with heme (at the same dose concentration as the treatment group), and a blank was sprayed with clear water. On May 19 (after transplanting) and July 2 (blooming stage), an agent was sprayed at 1.5 mg/mu in the treatment and control groups, with water amounts per mu respectively as follows: 15 L and 30 L (sample concentrations: 0.1 ppm and 0.05 ppm). On September 13, 10 pepper plants with uniform growth were selected from each of the treatment group and the control group, and fruit numbers and single-fruit weights were counted. The whole field was harvested in three batches on August 30, September 13, and September 25, respectively. Yields were subjected to combined statistics and comparison, and results were as follows: […]

[4] = Dilution and pH determination for sample solutions; type: physicochemical
Protocol: Method: 0.2500 g of a sample was accurately weighed and added to a 25 mL volumetric flask, dissolved with purified water, and diluted to a specified scale to prepare a 1.00% (10,000.0 ppm) initial solution. The initial solution was diluted with purified water in different ratios to prepare a series of solutions with a concentration of 1,000.0 ppm to 0.1 ppm. A pH value of each sample was determined three times.

[5] = test system: wheat; test: Germination of wheat and growth of seedlings; type: in vivo, wheat (Huaimai 35); settings: for Root length / Root number / Root weight / Seedling height / Seedling weight: wheat seedlings
Protocol: Method: 3 replicates were set for each treatment. 50 full seeds with a consistent size were selected each time for each sample, disinfected with sodium hypochlorite for 5 min, rinsed with clear water, and placed in a plastic box filled with 100 g of a sand. 25 mL of a prepared sample solution was poured into the plastic box, and the seeds were arranged regularly. The plastic box was covered with a lid, and then incubated in a 25° C. incubator. The germination was determined when a length of a sprout of a wheat seed exceeded a half of a diameter (long axis) of the wheat seed (determination criterion). According to the growth of wheat, the germ exposure of seeds and the number of germinated seeds were recorded every day. On day 6, 10 wheat seedlings were randomly selected, and a root length, a plant height, and a root number were determined. On day 7, a root weight and an aboveground part weight were determined. All index data was produced based on 3 replicates.

[6] = Water solubility of the prepared salts; type: physicochemical
[7] = test system: mosaic virus; test: Controlling diseases in tobacco by spraying; type: in vivo, tobacco (Yunyan 87); settings: 0.20 ppm sprayed twice, 30 L/mu
Text: For each treatment, 4 plots relatively scattered were selected from the field, with each plot of 50 m^2. An agent was sprayed twice around May 28 and June 4 during a root-spreading stage (12 leaves to 14 leaves) after tobacco transplanting, respectively. A same spraying volume (30 L/mu) was adopted for each treatment. During the spraying operation, each leaf surface should be sprayed evenly without dead corners left.
On July 15, tobacco plants in all treatment plots were surveyed. An incidence grading survey was conducted according to the Grade and investigation method of tobacco diseases and insect pests GB/T23222-2008, and an incidence rate and a disease index were counted for each treatment plot.

[8] = test system: wheat; test: Spraying on wheat to increase a yield; type: in vivo, wheat (Huaimai 35)
Protocol: Crop: Huaimai 35. […] On Jun. 11, 2021, the harvesting was conducted throughout the field at a time.

[9] = target: chlorophyllase; test: In vitro chlorophyllase-inhibiting activity test; type: biochemical, mung bean; settings: substrate chlorophyll 120 ppm, sample 0.3 ppm to 30.0 ppm
Protocol: A chlorophyllase inhibition rate of a salt sample solution at each concentration was determined, and an IC50 value for a chlorophyllase inhibition activity of a salt sample was calculated.

[10] = under light 30,000 lux, 1 h, salts in water, acidic reference in 30% to 50% ethanol
[11] = under light 30,000 lux, 2 h, salts in water, acidic reference in 30% to 50% ethanol
[12] = under light 30,000 lux, 3 h, salts in water, acidic reference in 30% to 50% ethanol
[13] = 3 mg/mu sprayed 3 times (0.2, 0.1, 0.1 ppm)

- IC50 for chlorophyllase inhibition activity [9]: 5.26 ppm
- pH ([4]; 0.1 ppm in purified water): (6.94)
- pH ([4]; 1.0 ppm in purified water): (7.11)
- pH ([4]; 10.0 ppm in purified water): (7.40)
- pH ([4]; 20.0 ppm in purified water): (7.65)
- pH ([4]; 30.0 ppm in purified water): (7.78)
- pH ([4]; 100.0 ppm in purified water): (8.18)
- Relative content [1, 10]: 71.60%
- Relative content [1, 11]: 62.44%
- Relative content [1, 12]: 63.14%
Molecule: magnesium iron chlorophyllin

- IC50 for chlorophyllase inhibition activity [9]: 5.66 ppm
- Relative content [1, 10]: 71.19%
- Relative content [1, 11]: 65.23%
- Relative content [1, 12]: 61.37%
- solubility in water [6]: slightly soluble
Molecule: zinc iron chlorin [Example 28]

- pH ([4]; 0.1 ppm in purified water): (6.61)
- pH ([4]; 1.0 ppm in purified water): (6.67)
- pH ([4]; 10.0 ppm in purified water): (7.21)
- pH ([4]; 20.0 ppm in purified water): (7.37)
- pH ([4]; 30.0 ppm in purified water): (7.50)
- pH ([4]; 100.0 ppm in purified water): (8.05)
- pH ([4]; 1000.0 ppm in purified water): (9.25)
- pH ([4]; 10000.0 ppm in purified water): (10.60)
- Relative content [1, 10]: 63.47%
- Relative content [1, 11]: 62.74%
- Relative content [1, 12]: 57.05%
Molecule: C=CC1=C(C)c2cc3[nH]c(cc4nc(cc5[nH]c(cc1n2)c(C)c5CCC(=O)O)C(CCC(=O)O)=C4C)c(C)c3C=C [Protoporphyrin disodium, protoporphyrin disodium, reference compound]
- Adventitious root number ([2]; 0.01 ppm): 9.61 root/seedling
- Total adventitious root length ([2]; 0.01 ppm): 20.74 cm/seedling
- Adventitious root number ([2]; 0.1 ppm): 9.77 root/seedling
- Total adventitious root length ([2]; 0.1 ppm): 21.30 cm/seedling

- IC50 for chlorophyllase inhibition activity [9]: 13.70 ppm
- Relative content [1, 10]: 98.85%
- Relative content [1, 11]: 97.47%
- Relative content [1, 12]: 96.78%
- solubility in water [6]: slightly soluble
Molecule: copper copper chlorophyllin [Example 51]

- IC50 for chlorophyllase inhibition activity [9]: 17.76 ppm
- Relative content [1, 10]: 88.43%
- Relative content [1, 11]: 93.28%
- Relative content [1, 12]: 70.90%
- solubility in water [6]: slightly soluble
Molecule: copper zinc chlorophyllin [Example 42]

The next lines start with the molecule.

Molecule: C=CC1=C(C)c2cc3[n-]c(cc4[n-]c(cc5nc(cc1n2)C(C)=C5C=C)c(C)c4CCC(=O)O)c(CCC(=O)O)c3C.[Cl-].[Fe+3] [Chlorhematin, chlorhematin, reference compound]
- Relative content ([1]; in the dark, 25° C., 0 h): 100.00%
- Relative content ([1]; in the dark, 25° C., 1 h): 99.55%
- Relative content ([1]; in the dark, 25° C., 2 h): 99.24%
- Relative content ([1]; in the dark, 25° C., 3 h): 98.65%
- Relative content ([1]; under light 30,000 lux, 0 h): 100.00%
- Relative content [1, 10]: 27.73%
- Relative content ([1]; under light 30,000 lux, 1 h, salts in water, acidic reference in 30% to 50% ethanol, listed as chlorhematin): less than 30%
- Relative content [1, 11]: 21.64%
- Relative content [1, 12]: 20.21%
- Adventitious root number ([2]; 0.01 ppm): 11.07 root/seedling
- Total adventitious root length ([2]; 0.01 ppm): 18.03 cm/seedling
- Adventitious root number ([2]; 0.1 ppm): 10.33 root/seedling
- Total adventitious root length ([2]; 0.1 ppm): 18.28 cm/seedling
- Average fruit number [3]: 49.2 fruits/plant
- Single-fruit weight [3]: 18.6 g/fruit
- Yield per mu [3]: 2833.3 kg/mu
- Yield increase rate [3]: 5.33%

Molecule: C=CC1=C(C)c2cc3[n-]c(cc4nc(cc5[n-]c(cc1n2)c(C)c5C=C)C(C)=C4CCC(=O)[O-])c(CCC(=O)[O-])c3C.[Cl-].[Fe+3].[K+].[K+] [Example 10, potassium chlorhematin]
- pH ([4]; 0.1 ppm in purified water): (6.85)
- pH ([4]; 1.0 ppm in purified water): (6.90)
- pH ([4]; 10.0 ppm in purified water): (7.33)
- pH ([4]; 20.0 ppm in purified water): (7.45)
- pH ([4]; 30.0 ppm in purified water): (7.57)
- pH ([4]; 100.0 ppm in purified water): (8.10)
- pH ([4]; 1000.0 ppm in purified water): (9.43)
- pH ([4]; 10000.0 ppm in purified water): (10.21)
- Relative content [1, 10]: 90.91%
- Relative content [1, 11]: 90.08%
- Relative content [1, 12]: 81.82%
- Germination rate of wheat ([5]; 0.0025 ppm): 94.0%
- Root length ([5]; 0.0025 ppm): 10.01 cm
- Root number ([5]; 0.0025 ppm): 5.1
- Root weight ([5]; 0.0025 ppm): 0.1163 g
- Seedling height ([5]; 0.0025 ppm): 9.42 cm
- Seedling weight ([5]; 0.0025 ppm): 0.298 g
- Germination rate of wheat ([5]; 0.0250 ppm): 94.7%
- Root length ([5]; 0.0250 ppm): 9.74 cm
- Root number ([5]; 0.0250 ppm): 5.2
- Root weight ([5]; 0.0250 ppm): 0.1143 g
- Seedling height ([5]; 0.0250 ppm): 9.56 cm
- Seedling weight ([5]; 0.0250 ppm): 0.286 g
- Germination rate of wheat ([5]; 0.2500 ppm): 97.3%
- Root length ([5]; 0.2500 ppm): 9.15 cm
- Root number ([5]; 0.2500 ppm): 5.3
- Root weight ([5]; 0.2500 ppm): 0.1036 g
- Seedling height ([5]; 0.2500 ppm): 7.51 cm
- Seedling weight ([5]; 0.2500 ppm): 0.211 g
- Adventitious root number ([2]; 0.01 ppm): 14.85 root/seedling
- Total adventitious root length ([2]; 0.01 ppm): 26.83 cm/seedling
- Adventitious root number ([2]; 0.1 ppm): 14.02 root/seedling
- Total adventitious root length ([2]; 0.1 ppm): 25.21 cm/seedling
- solubility in water [6]: easily soluble
- Average fruit number [3]: 50.5 fruits/plant
- Single-fruit weight [3]: 18.5 g/fruit
- Yield per mu [3]: 2975.0 kg/mu
- Yield increase rate [3]: 10.59%

Molecule: iron chlorin [reference compound]
- Relative content ([1]; in the dark, 25° C., 0 h): 100.0%
- Relative content ([1]; in the dark, 25° C., 1 h): 99.25%
- Relative content ([1]; in the dark, 25° C., 2 h): 99.26%
- Relative content ([1]; in the dark, 25° C., 3 h): 99.20%
- Relative content ([1]; under light 30,000 lux, 0 h): 100.00%
- Relative content [1, 10]: 31.04%
- Relative content [1, 11]: 28.12%
- Relative content [1, 12]: 23.73%
- Disease index [7]: 8.90
- Relative control effect [7]: 65.57%
- Actual yield per mu [8, 13]: 586.9 kg
- Ear number per mu [8, 13]: 31.5 10,000
- Grain number per ear [8, 13]: 34.6 grains/ear
- Thousand-grain weight [8, 13]: 53.9 g
- Yield increase rate per mu ([8]; 3 mg/mu sprayed 3 times, versus clear water): 4.99%

Molecule: copper iron chlorin [Example 29]
- IC50 for chlorophyllase inhibition activity [9]: 4.92 ppm
- Relative content [1, 10]: 78.52%
- Relative content [1, 11]: 71.02%
- Relative content [1, 12]: 64.29%
- solubility in water [6]: slightly soluble

Molecule: zinc zinc chlorophyllin [Example 41]
- IC50 for chlorophyllase inhibition activity [9]: 18.77 ppm
- Relative content [1, 10]: 71.62%
- Relative content [1, 11]: 66.31%
- Relative content [1, 12]: 63.93%
- solubility in water [6]: slightly soluble

Reference: patent publication US20260123631A1, “NATURAL PORPHIN SALT AND USE THEREOF AS PLANT GROWTH REGULATOR AND PLANT IMMUNITY INDUCER” (NANJING BOSTEC BIOLOGICAL ENGINEERING CO., LTD, priority 2022, published 2026)
